Results reported in article PMC12592418, “Therapeutic potential of red bean (phaseolus vulgaris) peptides: anticancer, antihypertension, and antioxidant activities” (Scientific Reports, 2025).
No end group written: not given here.

How the values were obtained:
[1] = system: SW620 cells; test: MTT cell viability assay, SW620; assay type: cell-based, human; settings: synthetic peptide 100 µg/ml, 24 h, mean ± SD
Procedure: (§1) CaCO2, HepG2, MCF-7, NCI-H460, SiHa, SW620, and Vero cells were obtained from the American Type Culture Collection (ATCC, Manassas, VA, USA). Cells were cultured in Dulbecco’s Modified Eagle’s Medium (DMEM; PAA, Pasching, Austria), supplemented with 10% (v/v) fetal bovine serum (Gibco, South America), 10 mM HEPES (HyClone, Utah, USA), 2 mM L-glutamine, and 100 U/mL penicillin and 100 µg/mL streptomycin. Cultures were maintained at 37 °C in a humidified atmosphere containing 5% CO₂.
(§2) The anticancer activity of protein hydrolysates and synthetic peptides against CaCO2, HepG2, MCF-7, NCI-H460, SiHa, SW620, and Vero cells were evaluated using the MTT assay. Cells were seeded into 96-well plates (Nunc™, Roskilde, Denmark) at a density of 2 × 10⁴ cells per well, and allowed to adhere. Following seeding, cells were treated with 100 µg/mL of protein hydrolysates or synthetic peptides for 24 h, while untreated cells served as controls. After 24 h, 20 µL of MTT solution (5 mg/mL; Sigma, St. Louis, MO, USA) was added to each well and incubated for an additional 3 h. The supernatant was then removed, and 100 µL of DMSO was added to each well to dissolve the formazan crystals. Optical density (OD) was measured at 540 nm using a microplate reader (Rayto RT-2100 C, China). Cell viability was calculated using the equation: (OD of treated cells/OD of untreated cells) × 100.
(§3) The IC50 values were calculated from a fitted semi-log response curve, plotting cell viability percentages against concentration. These values were determined using the AAT-Bioquest IC50 calculator (https://www.aatbio.com/tools/ic50-calculator).

[2] = system: MCF-7 cells; test: MTT cell viability assay, MCF-7; assay type: cell-based, human; settings: synthetic peptide 100 µg/ml, 24 h, mean ± SD
Procedure: as §1, §2, §3

[3] = ABTS radical scavenging assay; assay type: physicochemical; settings: peptide 100 µg/ml, 5 min in the dark, absorbance 750 nm, mean ± SD, n = 3
Procedure: Radical scavenging antioxidant activity was determined according to the ABTS radical scavenging activity following the method described by Re et al.[46] with slight modifications. Briefly, the solution of ABTS radical was prepared from the reaction between 7 mM ABTS (2,2-azino-bis (3-ethylbenzothiazoline-6-sulphonic acid) diammonium salt) and 2.45 mM ammonium persulphate. The resulting ABTS solution was diluted with distilled water to achieve an optical density of 0.7 at 750 nm. Then, a sample or standard of 10 µL was mixed with 190 µL of ABTS solution and incubated for 5 min in the dark. The absorbance was measured at 750 nm by a microplate reader (Rayto RT-2100 C, China). Ascorbic acid was used as the standard.

[4] = system: CaCO2 cells; test: MTT cell viability assay, CaCO2; assay type: cell-based, human; settings: synthetic peptide 100 µg/ml, 24 h, mean ± SD, n = 3
Procedure: as §1, §2, §3

[5] = DPPH radical scavenging assay; assay type: physicochemical; settings: peptide 100 µg/ml, 0.1 mM DPPH, 30 min in the dark, room temperature, absorbance 517 nm, mean ± SD, n = 3
Procedure: The DPPH radical scavenging activity of the sample was evaluated following the protocol by Muangrod et al.[48] with slight modifications. Briefly, 190 µL of 0.1 mM DPPH was mixed with 10 µL of the sample or standard ascorbic acid in each well and incubated at room temperature in the dark for 30 min. The absorbance of the mixture was measured at 517 nm using a microplate reader (Rayto RT-2100 C, China). Ascorbic acid was used as the standard. Results were expressed as micrograms ascorbic acid equivalent (µg AAE g^−1).

[6] = system: angiotensin-converting enzyme (ACE); test: ACE inhibitory activity assay (HHL substrate); assay type: biochemical; settings: peptide 100 µg/ml, ACE 0.2 U/mL, 5 mM HHL, phosphate buffer pH 6.8, 37 °C, mean ± SD, n = 3
Procedure: The method utilized here is a spectrophotometric method based on the commonly used method introduced by Cushman and Cheung (1971)[45]. The 5 ul of sample was preincubated with 45 ul of ACE enzyme (0.2 U/mL) in 100 mM Phosphate buffer (pH 6.8) and incubated for 10 min at 37 °C. Enzyme activity was assayed by monitoring the hydrolysis of hippuryl-L-histidyl-L-leucine (HHL). After adding 50 µL of a 5 mM HHL substrate solution, the increase in absorbance at 405 nm was measured every minute for 15 min at 37 °C using a 96-well microplate reader. The initial velocity was determined from the linear portion of the curve, and the inhibitory activity was expressed as a percentage calculated using the following equation:
% inhibition = (1-(B-b)/(A-a)) x 100,
where A is an initial velocity of the control reaction with enzyme (control), a is an initial velocity of the control reaction without enzyme (control blank), B is an initial velocity of the enzyme reaction with sample and b is an initial velocity of the reaction with sample but without enzyme (sample blank).

[7] = system: NCI-H460 cells; test: MTT cell viability assay, NCI-H460; assay type: cell-based, human; settings: synthetic peptide 100 µg/ml, 24 h, mean ± SD
Procedure: as §1, §2, §3

[8] = system: HepG2 cells; test: MTT cell viability assay, HepG2; assay type: cell-based, human; settings: synthetic peptide 100 µg/ml, 24 h, mean ± SD, n = 3
Procedure: as §1, §2, §3

[9] = system: Vero cells; test: MTT cell viability assay, Vero; assay type: cell-based, monkey; settings: synthetic peptide 100 µg/ml, 24 h, mean ± SD, n = 3
Procedure: as §1, §2, §3

[10] = FRAP ferric ion-reducing antioxidant power assay; assay type: physicochemical; settings: peptide 100 µg/ml, 30 min in the dark, absorbance 593 nm, mean ± SD, n = 3
Procedure: The ferric ion-reducing antioxidant power assay was analyzed according to the method by Rumpf et al.[47] with minor modifications. Briefly, the FRAP reagent was prepared from 300 mM sodium acetate (pH 3.6) and 10 mM TPTZ (2,4,6-tris (2-pyridyl)-s-triazine) in 40 mM HCl and 20 mM ferric chloride at the ratio of 10:1:1, respectively. Then, a 10 µL aliquot of the sample or standard was mixed with 190 µL of the FRAP reagent before incubating in the dark for 30 min. The absorbance was measured at 593 nm using a microplate reader (Rayto RT-2100 C, China). Ascorbic acid was used as the standard. Results were expressed as micrograms of ascorbic acid equivalent per gram (µg AAE g^−1).

[11] = system: SiHa cells; test: MTT cell viability assay, SiHa; assay type: cell-based, human; settings: synthetic peptide 100 µg/ml, 24 h, mean ± SD, n = 3
Procedure: as §1, §2, §3

Substance | Inhibitory percentage, SW620 ([1]; n = 3, SD) [%] | Inhibitory percentage, MCF-7 ([2]; n = 3) [%] | Antioxidant, ABTS [3] | Inhibitory percentage, CaCO2 [4] [%] | Antioxidant, DPPH [5] | Antihypertension (%), percentage inhibition of ACE ([6]; SD) [%] | Inhibitory percentage, NCI-H460 ([7]; n = 3, SD) [%] | Inhibitory percentage, HepG2 [8] [%] | Inhibitory percentage, Vero [9] [%] | Antioxidant, FRAP [10] | Inhibitory percentage, SiHa [11] [%] | Inhibitory percentage, SW620 ([1]; n = 3) [%] | Antihypertension (%), percentage inhibition of ACE [6] [%] | Inhibitory percentage, NCI-H460 ([7]; n = 3) [%] | Inhibitory percentage, MCF-7 ([2]; n = 3, SD) [%]
APANGSAF [RB-5] | 3.58±0.04 | 0 | 412.60±0.71 µg ascorbic acid equivalent | 13.21±0.04 | 374.62±13.56 µg ascorbic acid equivalent | 43.33±0.33 | 10.58±0.03 | 0 | 0 | 87.48±0.20 µg ascorbic acid equivalent | 8.75±0.00 |  |  |  | 
DHPTGGL [RB-2] |  | 0 | 284.62±0.75 µg ascorbic acid equivalent | 8.99±0.08 | 239.10±0.83 µg ascorbic acid equivalent |  |  | 0 | 0 | 59.87±0.06 µg ascorbic acid equivalent | 10.28±0.02 | 0 | 0 | 0 | 
RGSKQRQKRQW [RB-7] | 1.47±0.01 | 0 | 507.53±13.49 µg ascorbic acid equivalent | 5.73±0.02 | 805.35±5.83 µg ascorbic acid equivalent | 60.00±1.29 | 1.74±0.01 | 0 | 0 | 187.50±1.88 µg ascorbic acid equivalent | 8.78±0.08 |  |  |  | 
NLRKLKRL [RB-1] |  |  | 367.86±25.39 µg ascorbic acid equivalent | 7.33±0.02 | 373.74±12.01 µg ascorbic acid equivalent | 20.00±2.82 | 5.40±0.01 | 0 | 0 | 189.53±6.59 µg ascorbic acid equivalent | 4.64±0.02 | 0 |  |  | 2.10±0.00
